# According to patent publication US20180353445A1, “METHODS AND COMPOSITIONS RELATING TO PROTEASOME INHIBITOR RESISTANCE” (Whitehead Institute for Biomedical Research, priority 2017, published 2018):
# “Also recorded” adds a separate entry of the source.
# Assays:
# Type in all cases: cell-based, human
# [1] = tested on: T47D cells; test: Competition co-culture of TurboRFP PSMD2 shRNA and GFP control shRNA T47D cells, FACS/microscopy; conditions: 1:10 plating ratio, panel of proteasome inhibitors
# Protocol: We created two cell lines—one line that expresses red fluorescent protein (turboRFP) and the doxycycline-inducible PSMD2-targeting shRNA and another line that expresses green fluorescent protein (GFP) and a doxycycline-inducible control shRNA (FIG. 6A). First, we induced shRNA expression with doxycycline for 48 hours. After recovery, we mixed shPSMD2-RFP and shControl-GFP cells at different ratios (either 1:1, 1:2, 1:5 or 1:10), adding the cells with reduced PSMD2 as the minority subpopulation. Twenty-four hours after plating, we treated these mixed populations of cells for 48 hours with increasing concentrations of bortezomib (5, 7.5 or 10 nM). We allowed the cells to recover in the absence of bortezomib and then we quantified the red and green cells by FACS analysis (FIG. 6A) and captured representative images by fluorescence microscopy (FIG. 6B),
# The experiment described in Example 10 was repeated with minor differences using a panel of different proteasome inhibitors: MLN2238, MLN9708, and oprozomib T47D cells harboring a doxycycline inducible control shRNA (GFP) or a doxycycline-inducible PSMD2 shRNA (TurboRFP) were incubated with doxycycline for 3 days. Cells were collected, counted, and plated at a 1:10 ratio of TurboRFP-expressing PSMD2 shRNA cells/GFP expression control shRNA cells in the absence of Dox. Proteasome inhibitors were added at the specified concentrations and cells were maintained in culture. Cells were allowed to recover in the absence of the proteasome inhibitor and then analyzed by FACS (FIG. 8B, top) or visualized by microscopy (FIG. 8B, bottom). In the absence of proteasome inhibitors, the initial plating ratio of these cells (1:10) was maintained over the duration of the experiment (FIG. 8B). […]
# Visualization and FACS analysis of GFP/RFP levels—cells were trypsinized in 100 μL Accumax® solution and further diluted into 100 μl PBSx1. The number of cells with red or areen fluorescent proteins was measured by MACSQuant® VYB according to manufactures protocol. […]
# [2] = tested on: T47D cells with doxycycline inducible PSMD2 KD (Lo19S) versus control cells; test: Lo19S T47D drug screen (PSMD2 KD versus control cells, CellTiter-Glo); conditions: T47D, Lo19S state by dox-inducible PSMD2 shRNA; compound library screen; 72 h; CellTiter-Glo
# Protocol: The effect of each drug on viability of cells was calculated by averaging the duplicate experiments. The data is plotted in FIG. 16 as the log2 of the ratio of viability of PSMD2 KD versus control cells (log2 (shPSMD2/Control)). […] The Selleck natural product library (NPC) comprising 502 compounds in 5 doses and the. NIH bioactive compound library that includes 731 compounds in 4 doses were also screened using the same system.
# A deeper understanding of the proteasome inhibitor resistant state could yield insights into the molecular mechanisms activated by cells to cope with proteotoxic stress and elucidate new therapeutic strategies for cancer. With these goals in mind, we screened mechanistically diverse small molecule libraries to identify compound sensitivities altered by the Lo19S and Hi-OXPHOS states. An initial screen was conducted in the isogenic T47D model with transient induction of the Lo19S state as described above, We evaluated >4300 mechanistically well-defined compounds within 4 libraries. The compounds included approved cancer drugs (Selleck anti-cancer library: CDL), common natural products (Natural product library: NPC) and an ^-NIH bioactives library (NIH). Each of these compounds was tested at ≥4 concentrations. (Table S5, data not shown), An additional 2866 compounds from the Boston University's Chemical Methodology and Library Development (CMLD-BU) small molecule collection was screened at a single dose (BULL, see Table S5).
# (§1) Generation of the Lo19S T47D cell line—For the generation of the T47D Tet-inducible PSMD2 knockdown cell line—the TRIPZ vector with an inducible shRNA targeting PSMD2 was purchased from Dharmacon (clone V3THS_403760). It was introduced to the T47D cells according to manufactures protocol and cells were selected with puromycin 1 g/ml for one week. The cells were exposed to doxycycline for 24 hours and cells were FACS sorted for the top 10% of most RFP expressing cells (highest expression of shRNA). The cells were further cultured in the absence of doxycycline and PSMD2 knockdown was induced as specified in the text.
# After 48 hours the cells were collected counted and plated (in the absence of dox) at 1000 cells/well in 384-well opaque, white assay plates (Coming, NY), 50 uL per well, and incubated overnight at 37° C./5% CO2. Compound stocks from the Cancer drug library containing 349 bioactive compounds that were arrayed in dose 10 nM, 100 nM, 1 uM, 10 uM (Selleck anti-cancer compound library L3000), the natural products library containing 502 compounds that were utilized in 5 doses (dilution of 1:1000 of 2ug/ml, 0.2 ug/ml, 0.002/ug/ml, 0.0002 ug/ml), the NIH bioactive library including 731 drugs in dose of 10 nM, 100 nM, 1 uM, 10 uM and the Boston University's CMLD (Chemical Methodology and Library Development) compound deck containing 2866 compounds in one dose (10 uM), including novel chemotypes that uniquely probe three-dimensional space by employing stereochemical and positional variation within the molecular framework as diversity elements in library design. 50 nl of compounds were pin-transferred (V&P Scientific, CA, pin tool mounted onto Tecan Freedom Evo 150 MCA96 head, Tecan, Calif.) into duplicate assay plates and incubated for 72 h. The DMSO content was 0.1% within each well, Per plate, there are 32 wells of DMSO vehicle control and 32 wells of positive control compounds. After three days of incubation, 10 uL of CellTiter-Glo (Promega, Wis.) was added to each well, incubated for 10 minutes and the luminescence output was read on the M1000 Infinite Pro plate reader (Tecan, Calif.).
# [3] = tested on: T47D cells; test: The glucose/galactose drug screen; conditions: for relative viability change of cells grown in glucose versus galactose: 10 mM Glucose or Galactose, Selleck anti cancer and natural product libraries
# Protocol: We conducted a second set of drug screens to identify unique sensitivities conferred by the Hi-OXPHOS state using parental T47D breast cancer cells (without 19S subunit suppression). For this screen, we used the NPC and CDL libraries as they contained the greatest number of hits in the Lo19S screen. We tested over 800 compounds at multiple concentrations and measured their effects on relative cell growth/viability when cells were grown under aerobic glycolysis conditions (glucose-supplemented medium) or forced mitochondrial respiration conditions (galactose-supplemented medium).
# The glucose/galactose drug screen—T47D cells growing in regular media were collected counted and after centrifugation cells were re-suspended in RPM1 media without glucose containing 10% dialyzed serum with the addition of either 10 mM glucose or 10 mM galactose, Cells were then plated at 1000 cells/well in 384-well opaque, white assay plates (Coming, N.Y.), 50 uL per well, and incubated overnight at 37°C./5% CO2. Application of the drug libraries and cell viability was executed as described above for the Lo19S drug screen.
# [4] = tested on: T47D cells; test: Drug library screen (Selleck anti-cancer, NPC, NIH bioactive), PSMD2 KD vs control T47D cells
# Protocol: Schematic representation of the drug screen setup. (FIG. 37A) 147D cells harboring a doxycycline-inducible PSMD2 shRNA were grown in the presence or absence of doxycycline for 48 hr. Cells were then collected, washed, and plated in the absence of doxycycline for 24 hr prior to exposure different compounds. Relative cell numbers were measured 3 days later.
# The relative viability of the Lo19S versus control cells was calculated for replica experiments and the log2 of the ratio is plotted. […] The relative viability of the respiring cells (Hi-OXPHOS) (gal) versus the control cells (glu) was calculated for replica experiments and the log2 of the ratio is plotted.
# After 48 hours the cells were collected, counted, and plated at 1000 cells/well in 384 well plates in duplicates for each cell line. Compounds from the Selleck Chemicals anti-cancer compound library (349 drugs in 4 concentrations; […]) were pinned the next day and viability was measured after 72 hours by the reduction of Resazurin (Ex=530 run, Em=590nin). (See FIG. 37A for schematic of screen.)
# [5] = tested on: IMR32 (reduced PSMD5) and Kelly neuroblastoma cells; test: Viability of IMR32 versus Kelly neuroblastoma cells (CellTiter-Glo); conditions: 72 hours after addition; CellTiter-Glo
# Protocol: To determine whether these compounds also differentially affect cells with reduced expression of PSDMS, IMR32 and Kelly cells were each cultured in the presence of ABT-263, disulfiram, or elesclomol across a range of concentrations. Cell viability was measured by CellTiter-Glo® Luminescent Cell Viability Assay 72 hours after addition of the compound to cells. The fold viability relative to culture in the absence of the compound was determined for each cell line. […] In the experiment shown in FIG. 24, the lowest lower concentration of ABT-263 and disulfiram tested was 1 uM.
# ABT-263 targets several members of the BCL2 family, including BCL2 and BCL-XL.
# [6] = tested on: IMR32 (reduced PSMD5) and Kelly neuroblastoma cells; test: as above; conditions: other experiments, e.g., 0.1 uM
# [7] = tested on: T47D cells; test: Cell viability, T47D cells with doxycycline-inducible PSMD2 shRNA (KD) vs control; conditions: T47D, transient PSMD2 reduction
# Protocol: FIGS. 37A-37E: Subunit suppression results in highly specific drug sensitivity alteration. Schematic representation of the drug screen setup. (FIG. 37A) 147D cells harboring a doxycycline-inducible PSMD2 shRNA were grown in the presence or absence of doxycycline for 48 hr. Cells were then collected, washed, and plated in the absence of doxycycline for 24 hr prior to exposure different compounds. Relative cell numbers were measured 3 days later. […] (FIGS. 37C-37E) The relative viability of the PSMD2 knockdown (KD) versus the control was calculated for replica experiments and the log2 of the ratio is plotted for 349 compounds from the Selleck anti-cancer L3000 drug library that were tested in 4 concentrations (FIG. 37C), the Selleck natural product library (NPC) comprising 502 compounds in 5 doses (FIG. 37D), and the NIH bioactive compound library that includes 731 compounds in 4 doses (FIG. 37E). Specific compounds are annotated.
# The effect of transient PSMD2 reduction on growth of T47D cells in the presence of different proteasome inhibitors (bortezomib, MLN9708, carfilzomib, oprozornib) was tested. T47D cells harboring a doxycycline inducible control shRNA (GFP) or a doxycycline-inducible PSMD2 shRNA (TurhoRFP) were incubated with doxycycline for 3 days. Cells were then split and grown in the absence of Dox and proteasome inhibitors were then added at various concentrations. Cells were maintained in culture and then counted.
# as §1, with “For” for “Generation of the Lo19S T47D cell line—For”, “line- the” for “line—the”, “Dhannacon” for “Dharmacon”, “μg/ml” for “g/ml”, “relevant Examples. The TRIPZ control GFP vector was created by removing the turboRFP from the TRIPZ control vector by digestion with Agel and ClaI and replacing it with GFP amplified with primers flanking with Agel and Clal restriction sites.” for “text.”
# Cell Viability Assay—Relative cell growth and survival were measured in 96-well microplate format in the shRNA experiments and in 384 well format in the drug toxicity assays, by using the fluorescent detection of resazurin dye reduction as an endpoint (544 nm excitation and 590 run emission). 2,500 cells in 96 wells format or 1,000 cells in 384 well format were plated 24 hours before compound exposure (for 72 hours or indicated time). Each analysis was performed at least with three replicas.
Structure (SMILES),shift of surviving population toward PSMD2 shRNA cells [1],viability of PSMD2 KD versus control cells (log2 (shPSMD2/Control)) [2],relative viability change of cells grown in glucose versus galactose [3],sensitivity of proteasome inhibitor resistant cancer cells vs sensitive counterpart cells [4],growth inhibition of T47D cells with reduced level of PSMD2 vs control T47D cells ([4]; Selleck anti-cancer compound library screen),sensitivity of IMR32 cells relative to Kelly cells (fold viability) [5],number of concentrations at which respiring cells were preferentially targeted ([3]; galactose versus glucose) [concentrations],toxicity at lower concentrations than 1 uM [6],resistance of cells harboring PSMD2 shRNA vs parental line (EC50) [7]
CC(C)C[C@H](NC(=O)CNC(=O)c1cc(Cl)ccc1Cl)B(O)O [MLN2238],substantially shifted the populations of surviving cells,selectively reduce viability of control cells versus PSMD2 KD cells,strongest hits in this screen,–,–,–,–,–,–
"CCN(CC)C(=S)SSC(=S)N(CC)CC [disulfiram, tetraethylthiuram disulfide]",–,selectively reduce the viability of PSMD2 KD cells versus control cells; also recorded: selectively sensitized cells; also recorded: highly effective in slowing the growth of cells in the Lo19S state,cells that respire are predominantly sensitive; also recorded: preferentially targeted respiring cells; also recorded: more potent in cells in the Hi-OXPHOS state,highly sensitive,selectively inhibit growth,dramatically more sensitive,4,a similar level of toxicity was observed,–
COC[C@H](NC(=O)c1cnc(C)s1)C(=O)N[C@@H](COC)C(=O)N[C@@H](Cc1ccccc1)C(=O)[C@@]1(C)CO1 [oprozomib],substantially shifted the populations of surviving cells,–,–,–,–,–,–,–,EC50 values increased considerably
